Measured values published in the supplement of paper PMC11208160.

Assay: recombinant UMI read abundance after kanamycin selection (control-corrected) (log10(CPM+1)); higher = more efficient recombination; extreme values may be limits of the assay; sequences stand for … in AGTGCAGAGAAAATCGGCCAGTTTTCTCTGCCTGCAGTCCGCATGCCGTGGGACCCCTTGGGTTCTAACCTGTTGCCTAGATTTATGCAGCGGACTGCCTTTCTCCCAAAGTGATAAACCGG…AGGTTGGTTTCACT; site = the 11-nt donor
Procedure, shortened: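 Counts of recombinant UMIs were reported as log10(CPM+1). Before that, they were converted to CPM, averaged over replicates and scaled using control-derived factors. They came from PCR across the donor–target junction after Escherichia coli carrying the pair library and target plasmid was plated on IPTG (0.07 mM) plus kanamycin, or unselected, in two replicates each.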
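Also: IS621 bridge recombinase in Escherichia coli cells against a fixed T5 target plasmid.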

Point of comparison: “AGACTAACATGGACCGGTTTTCCCGGTAATCCGTATTTGCT (site AGACTAACTAG)”, “recombinant UMI read abundance (log10)” value 2.61. Against it:
- TCGACTCCATGGACCGGTTTTCCCGGTAATCCGTATTTGCC (site TCGACTCCTGG) — lower, 0
- GTGGATGCATGGACCGGTTTTCCCGGTAATCCGTATTTGGT (site GTGTATGCTAC) — lower, 1.03
- TTGATTCCATGGACCGGTTTTCCCGGTAATCCGTATTTGAC (site TTGATTCCTGT) — lower, 0.35
- TAGCCTTCATGGACCGGTTTTCCCGGTAATCCGTATTTGCT (site TAGCCTTCTAG) — lower, 0
- AAGGCCCCATGGACCGGTTTTCCCGGTAATCCGTATTTGGT (site AAGGCCCCTAC) — lower, 0.395
- CGTGGAACATGGACCGGTTTTCCCGGTAATCCGTATTTGTA (site CGTGGAACTAA) — lower, 0.00446
- ACCTATACATGGACCGGTTTTCCCGGTAATCCGTATTTGAC (site ATCTATACTGT) — lower, 0.368
- CACTTCGCATGGACCGGTTTTCCCGGTAATCCGTATTTGGA (site CACTTCGCTTC) — lower, 0.493
- CGGTCATCATGGACCGGTTTTCCCGGTAATCCGTATTTGCA (site CGATCATCTAG) — lower, 0.01
- AGCAATCCATGGACCGGTTTTCCCGGTAATCCGTATTTGAA (site GGCAATCCTTT) — lower, 0.00676
- CCCCAAGCATGGACCGGTTTTCCCGGTAATCCGTATTTGGC (site CCCCAAGCTGC) — lower, 0
- CCCGGGGCATGGACCGGTTTTCCCGGTAATCCGTATTTGCA (site CCCGGGGCTTG) — lower, 1.23
- CTATAACCATGGACCGGTTTTCCCGGTAATCCGTATTTGGA (site CTATAACCTTC) — lower, 0.0031
- CAAGAAGCATGGACCGGTTTTCCCGGTAATCCGTATTTGCT (site CAAGCAGCTAG) — lower, 0
- CCAAGGACATGGACCGGTTTTCCCGGTAATCCGTATTTGTT (site CCAAGGACTAA) — lower, 0.865
- AAGCGGTCATGGACCGGTTTTCCCGGTAATCCGTATTTGTT (site AAGCGGTCTAA) — lower, 1.4
- GTCCGAGCATGGACCGGTTTTCCCGGTAATCCGTATTTGCA (site GTACGAGCTTG) — lower, 0
- GGAATGGCATGGACCGGTTTTCCCGGTAATCCGTATTTGGT (site GGACTGGCTAC) — lower, 0.00772
- ATATGAACATGGACCGGTTTTCCCGGTAATCCGTATTTGAC (site ATATGAACTGT) — higher, 2.9
- ACACGATCATGGACCGGTTTTCCCGGTAATCCGTATTTGTC (site ACACGATCTGA) — within 0.2 log units, 2.46
- CCCTAACCATGGACCGGTTTTCCCGGTAATCCGTATTTGCC (site CCCTACCCTGG) — lower, 0
- CGTACACCATGGACCGGTTTTCCCGGTAATCCGTATTTGAC (site CGTACACCTGT) — lower, 0
- AGATTATCATGGACCGGTTTTCCCGGTAATCCGTATTTGCT (site AGATTATCTAG) — within 0.2 log units, 2.71
- AAGCACGCATGGACCGGTTTTCCCGGTAATCCGTATTTGGG (site AAGCATGCTCC) — lower, 0.0182
- GGATAGACATGGACCGGTTTTCCCGGTAATCCGTATTTGCC (site GGATCGACTGG) — lower, 0
- GCTACCTCATGGACCGGTTTTCCCGGTAATCCGTATTTGCG (site GCTACCTCTCG) — lower, 1.22
- CGCCATACATGGACCGGTTTTCCCGGTAATCCGTATTTGCT (site CGCCCTACTAG) — lower, 0.00847
- CGTAATCCATGGACCGGTTTTCCCGGTAATCCGTATTTGTC (site CGGAATCCTAA) — lower, 0
- GCTACTACATGGACCGGTTTTCCCGGTAATCCGTATTTGCC (site GCTACTACTGG) — lower, 0
- CCAAGTGCATGGACCGGTTTTCCCGGTAATCCGTATTTGAT (site CCAAGTGCTAT) — lower, 1.57
- CCGTTCGCATGGACCGGTTTTCCCGGTAATCCGTATTTGTG (site CCGTTGGCTCA) — lower, 0.0144
- GTATGCACATGGACCGGTTTTCCCGGTAATCCGTATTTGTA (site GTAGGCACTTA) — lower, 0.461
- CCCGTTCCATGGACCGGTTTTCCCGGTAATCCGTATTTGCA (site CCCGCTCCTTG) — lower, 0
- GAATGGACATGGACCGGTTTTCCCGGTAATCCGTATTTGAC (site GAGTGGACTGT) — lower, 0
- TTAGAGGCATGGACCGGTTTTCCCGGTAATCCGTATTTGGA (site TTAGAGGCTTC) — lower, 0.701
- TACTTGACATGGACCGGTTTTCCCGGTAATCCGTATTTGCC (site TACTTGACTAG) — lower, 0.0078
